Data reported in patent publication US5081264A, “Bioxanthracene derivatives” (Kyowa Hakko Kabushiki Kaisha, priority 1989, dated 1992).
Where two headings read alike, the source gives them in different places. Each block holds one molecule with its values, some of them ahead of it.

What was measured:
[1] = system: nerve cells (septal area of the brain of a fetal rat); assay: Protection of cultured nerve cells (septal area) against L-glutamic acid; type: cell-based; details: L-glutamic acid 100 μM
Method: Protection of cultured nerve cells
(§1) The septal area was taken out from the brain of a fetal rat. The cells were dispersed using trypsin and deoxyribonuclease and were cultured for one day on a Pit medium (Dulbecco modified Eagle medium or Ham F12 medium, commercial products of Nissui Seiyaku K. K., Japan) containing 5% horse serum and 5% fetal calf serum. After adding cytosine arabinoide (10μM) to the medium, the culturing was continued for 10 days.
(§2) L-glutamic acid (100 μM) and ES-242-1 were added to the cultured broth to measure the survival ratio of the nerve cells. For control purposes, a similar procedure was carried out with the exception that glutamic acid (100μM) and/or ES-242-1 were replaced by dimethylsulfoxide (DMSO) (0.5%). The cells which survived were counted by the fluorescence-dying method with reference to the Costa et al. method [Proc. Natl. Acad. Sci., U.S.A., 85, 7351-7355 (1988)].
(§3) The results shown in the following Table 3 were obtained in a manner similar to that described above except the cerebellum was used instead of the septal area. In the following tables, the term "GA" denotes L-glutamic acid (unit 100μM) and the term "SR" denote the survival ratio of the cells (%).

[2] = system: nerve cells (cerebellum of a rat); assay: Protection of cultured nerve cells (cerebellum) against L-glutamic acid; type: cell-based; details: L-glutamic acid 100 μM; for viability at 5 µg/mL / viability at 1 µg/mL / viability at 10 µg/mL: Rattus norvegicus, cerebellum, read-out: survival ratio of the cells (SR); for viability at 5 µg/mL: test compound 5 μg/ml; for inhibition of the death of nerve cells induced by L-glutamic acid: cerebellum (Tables 4 and 5); for viability at 1 µg/mL: test compound 1 μg/ml; for viability at 10 µg/mL: test compound 10 μg/ml
Method: as §1, §2, §3
The results shown in the following Tables 4 and 5 were obtained by a procedure similar to that described in Experiment 1 above with the exception that the cerebellum of a rat and ES-242-2 or ES-242-5 were respectively used instead of the septal area and ES-242-1.

[3] = system: CAI area neurons of the hippocampus; assay: Protection of nerve cells from ischaemic injury; type: in vivo, Mongolian gerbils
Description: Ischaemic injury of the nervous system was induced in the CAI area of the hippocampus of Mongolian gerbils by closing and reperfusing two cartoid arteries with reference to the Kirino et al method [Cerebral Nerve, Vol. 38, No. 12, 1157-1163 (1986)] as follows.
On each occasion, the test compound was suspended in a physiological solution of sodium chloride. The animal (body weight 60-70 g) was anesthetized with ether. The left and right common cartoid arteries were exposed through midcervical vertical skin incision and the anesthetic was discontinued. The cartoid arteries on both sides were occluded for 5 minutes using aneurism clips. Immediately after this, a given amount (100 mg/kg) of Compound ES-242-1 was given orally to the animal. One week after this, the animal was fixed by transcardic perfusion. Immediately after this, the brain was removed from the animal to prepare a sample of the histologic section containing the CIA area of the hippocampus. The number of normal cells of the CAI area neurons per 1 mm linear length was counted.
The above-mentioned treatment is hereinafter referred to as the ischaemic treatment.
For control purposes, a group of the animals were given a physiological solution of sodium chloride only, without ischaemic treatment. […]

[4] = molecular target: N-methyl-D-aspartic acid receptor; assay: Binding activity to N-methyl-D-aspartic acid receptor ([3H]TCP binding in rat brain membranes); details: rat brain membranes (crushed cerebrum)
Method: The binding activity of Compounds ES-242 to N-methyl-D-aspartic acid receptor was measured as follows.
With reference to the modified method of Vignon et al [Brain Research, 280, 194-197 (1983)], the binding activity of ES-242 to N-[1-(2-thienyl) cyclohexyl]-3,4-[^3 H]piperidine ([^3 H]TCP) in rat brain membranes was measured by the use of a crushed cerebrum of a rat and expressed by IC50 viz. a concentration required for 50% inhibition of the binding ability to the sample.

Solubility = type: physicochemical
nervous system = details: literature report; cited from earlier work
[5] = system: N-methyl-D-aspartic acid receptors; details: literature report; cited from earlier work
[6] = literature report; cited from earlier work
[7] = literature report; cited from earlier work; remark: listed apart in the source
[8] = Table 4, control 95, GA alone 56
[9] = Table 5, control 88, GA alone 40

IC50 (50% inhibition of [3H]TCP binding) [4]: 14.6 µg/mL
Compound: COc1cc(OC)c2c(O)c3c(c(-c4c5c(c(O)c6c(OC)cc(OC)cc46)COC(C)C5O)c2c1)C(O)C(C)OC3 (centres unmarked) [ES-242-4]

IC50 (50% inhibition of [3H]TCP binding) [4]: 0.6 µg/mL
Compound: COc1cc(OC)c2c(O)c3c(c(-c4c5c(c(O)c6c(OC)cc(OC)cc46)COC(C)C5O)c2c1)CC(C)OC3 (centres unmarked) [ES-242-5]
inhibition of the death of nerve cells induced by L-glutamic acid [2]: inhibit the death of the nerve cells
viability at 1 µg/mL [2, 9]: 68%
viability at 5 µg/mL [2, 9]: 73%
viability at 10 µg/mL [2, 9]: 79%

The next lines start with the molecule.

Compound: COc1cc(OC)c2c(O)c3c(c(-c4c5c(c(O)c6c(OC)cc(OC)cc46)COC(C)C5OC(C)=O)c2c1)CC(C)OC3 (centres unmarked) [ES-242-1]
inhibition of the death of nerve cells induced by L-glutamic acid ([1]; septal area and cerebellum (Tables 2 and 3)): inhibited the death of the nerve cells
viability at 0.1 µg/mL ([1]; Rattus norvegicus, septal area, test compound 0.1 μg/ml, control 87, GA alone 5, read-out: survival ratio of the cells (SR)): 23%
viability at 0.5 µg/mL ([1]; Rattus norvegicus, septal area, test compound 0.5 μg/ml, control 87, GA alone 5, read-out: survival ratio of the cells (SR)): 73%
viability at 5 µg/mL ([2]; Table 3, control 90, GA alone 44): 75%
number of normal cells in average ± standard deviation (N) ([3]; 100 mg/kg oral immediately after 5 min occlusion, one week, n=5, normal control 100 ± 4.7, ischaemic control 0 ± 0): 24.4 ± 20.6 cells/mm
protecting activity to ischaemic injury of the nervous system ([3]; 100 mg/kg oral, gerbils): exhibited a significant protecting activity
IC50 (50% inhibition of [3H]TCP binding) [4]: 0.1 µg/mL
Solubility (Solubility; methanol, acetone, ethyl acetate and chloroform): Readily soluble
Solubility (Solubility; water and n-hexane): Insoluble

Compound: COc1cc(OC)c2c(O)c3c(c(-c4c5c(c(O)c6c(OC)cc(OC)cc46)COC(C)C5OC(C)=O)c2c1)C(OC(C)=O)C(C)OC3 (centres unmarked) [ES-242-2]
viability at 5 µg/mL ([1]; Rattus norvegicus, septal area, test compound 5 μg/ml, control 87, GA alone 5, read-out: survival ratio of the cells (SR)): 74%
viability at 50 µg/mL ([1]; Rattus norvegicus, septal area, test compound 50 μg/ml, control 87, GA alone 5, read-out: survival ratio of the cells (SR)): 74%
inhibition of the death of nerve cells induced by L-glutamic acid [2]: inhibit the death of the nerve cells
viability at 1 µg/mL [2, 8]: 44%
viability at 10 µg/mL [2, 8]: 88%
IC50 (50% inhibition of [3H]TCP binding) [4]: 1.9 µg/mL

Compound: COc1cc(OC)c2c(O)c3c(c(-c4c5c(c(O)c6c(OC)cc(OC)cc46)COC(C)C5OC(C)=O)c2c1)C(O)C(C)OC3 (centres unmarked) [ES-242-3]
IC50 (50% inhibition of [3H]TCP binding) [4]: 1.8 µg/mL

Compound: COc1cc2c(-c3c(OC)c(C)c(O)c4c(O)c5c(cc34)C[C@](C)(O)CC5=O)c3c(c(O)c2c(O)c1C)C(=O)C[C@@](C)(O)C3 [Singueanol II]
capability of protecting the nervous system (nervous system): neither capable of protecting the nervous system
antagonism against N-methyl-D-aspartic acid receptors [5]: nor antagnostic against N-methyl-D-aspartic acid receptors
anti-bacterial activity [6]: exhibit anti-aspartic and anti-bacterial activity
anti-aspartic activity [7]: exhibit anti-aspartic
